Drawing on patent US9403810B2, “Carboxamide derivatives” (Novartis AG, priority 2014, dated 2016), this text covers IC50 for 16 compounds.

The target of the assay is Smurf-1 (Homo sapiens (Human), UniProt Q9HCE7). Briefly: HECT E3 ligase autoubiquitinylation TR-FRET assay (Smurf-1). Type of assay: biochemical. The conditions noted are these: 8-point dose-response curve, 3 nM to 10 uM; 45 min incubation. The source says: To determine the HECT E3 ligase selectivity of the compounds, a panel of biochemical HECT E3 ligase autoubiquitinylation assays was employed (Smurf-1, Smurf-2, WWP1, WWP2, ITCH, Nedd4, Nedd4L and E6AP). The conjugation of ubiquitin to a protein substrate is a multistep process. In an initial ATP-requiring step, a thioester bond is formed between the carboxyl terminus of ubiquitin and an internal cystein residue of the ubiquitin-activating enzyme (E1). Activated ubiquitin is then transferred to a specific cystein residue of an ubiquitin-conjugating enzyme (E2). E2s donate ubiquitin to a HECT E3 ligase (E3) from which it is transferred to the substrate protein. HECT E3 ligases can auto-ubiquitinylate. This event is detected in the TR-FRET (Time-Resolved Fluorescence Resonance Energy Transfer) assay used in this panel. The reaction mix contains E1, E2, tagged-E3, biotin-conjugated ubiquitin, the compound and ATP in a suitable buffer and is incubated for 45 minutes to allow auto-ubiquitinylation of the E3 ligase. To measure the extent of ubiquitinylated E3 ligase by TR-FRET, the donor fluorophore Europium cryptate (Eu3+ cryptate), conjugated to streptavidin which subsequently binds to biotinylated ubiquitin, and the modified allophycocyanin XL665 (HTRF® primary acceptor fluorophore) coupled to a tag-specific antibody (HA, His or GST), which recognizes the respective E3 ligase fusion proteins, are added after the reaction is complete. When these two fluorophores are brought together by a bimolecular interaction (in this case ubiquitinylation of the E3 ligase), a portion of the energy captured by the Cryptate during excitation is released through fluorescence emission at 620 nm, while the remaining energy is transferred to XL665. This energy is then released by XL665 as specific fluorescence at 665 nm. Light at 665 nm is emitted only through FRET with Europium.
Sequence of Smurf-1 (Q9HCE7 whole entry): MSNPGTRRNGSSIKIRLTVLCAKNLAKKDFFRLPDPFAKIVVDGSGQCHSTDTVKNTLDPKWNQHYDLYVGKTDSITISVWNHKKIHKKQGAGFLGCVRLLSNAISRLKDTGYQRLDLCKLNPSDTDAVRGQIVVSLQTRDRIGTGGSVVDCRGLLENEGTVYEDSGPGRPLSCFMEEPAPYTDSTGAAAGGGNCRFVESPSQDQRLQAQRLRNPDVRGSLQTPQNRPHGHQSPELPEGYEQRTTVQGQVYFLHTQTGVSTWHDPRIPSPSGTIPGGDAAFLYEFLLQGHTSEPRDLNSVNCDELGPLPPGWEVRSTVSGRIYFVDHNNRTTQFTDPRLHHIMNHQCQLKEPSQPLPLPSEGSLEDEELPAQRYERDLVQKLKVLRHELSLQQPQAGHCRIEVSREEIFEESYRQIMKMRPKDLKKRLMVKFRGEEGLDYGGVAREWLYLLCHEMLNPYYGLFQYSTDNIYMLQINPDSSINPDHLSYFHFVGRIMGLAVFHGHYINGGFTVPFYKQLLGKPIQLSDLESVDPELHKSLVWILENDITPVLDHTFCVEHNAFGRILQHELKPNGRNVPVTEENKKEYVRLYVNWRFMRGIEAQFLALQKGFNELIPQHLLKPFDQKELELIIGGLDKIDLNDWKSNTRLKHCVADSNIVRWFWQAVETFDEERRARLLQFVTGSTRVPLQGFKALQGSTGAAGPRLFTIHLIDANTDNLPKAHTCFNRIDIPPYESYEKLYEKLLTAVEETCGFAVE
Test and reference compounds are prepared at 180× [final] in 90% DMSO, and diluted 1:3 in 90% DMSO.
For the biochemical assay panel, 50 nl of the test compounds, reference compounds and buffer/DMSO control are transferred to the respective wells of a 384-well white GREINER “SMALL VOLUME” PS plate. The assay panel is run at room temperature on a Biomek FX liquid handling workstation. To the assay plates containing 50 nl compound or control solutions in 90% DMSO, 4.5 ul of E3 ligase solution were added per well, followed by 4.5 ul of the pre-incubated E1/E2/Ub mix or the pre-diluted ubiquitin (LOW control). Plates are shaken vigorously after each addition. In this assay the compound concentrations range from 3 nM to 10 uM in an 8-point dose-response curve.
After an incubation time of 45 min in the dark, the plates are transferred into the Pherastar fluorescence reader to measure the TR-FRET signal.
Background: Time-resolved FRET reads energy transfer from a long-lived donor to a nearby acceptor.
For the compound `Cc1c(C(=O)Nc2c(C)n(C)n(C3CCCCC3)c2=O)noc1C1=CCC2(CCCO2)CC1` (stereo not shown) [Example 2.1, N-(2-Cyclohexyl-1,5-dimethyl-3-oxo-2,3-dihydro-1H-pyrazol-4-yl)-4-methyl-5-(1-oxaspiro[4.5]dec-7-en-8-yl)isoxazole-3-carboxamide], the IC50 was 64 nM.
Under `Cc1c(C(=O)Nc2c(C)n(C)n(C3CCCCC3)c2=O)noc1C1=CCC(C)(C)CC1` [Example 2.2, N-(2-Cyclohexyl-1,5-dimethyl-3-oxo-2,3-dihydro-1H-pyrazol-4-yl)-5-(4,4-dimethylcyclohex-1-en-1-yl)-4-methylisoxazole-3-carboxamide] stands 0.9 nM.
On to `Cc1c(C(=O)Nc2c(C)n(C)n(C3CCCCC3)c2=O)noc1C1=CCC(C)(C)C1` [Example 3, N-(2-Cyclohexyl-1,5-dimethyl-3-oxo-2,3-dihydro-1H-pyrazol-4-yl)-5-(4,4-dimethylcyclopent-1-en-1-yl)-4-methylisoxazole-3-carboxamide], for which the concentration for half-maximal inhibition (IC50) worked out at 6 nM.
`Cc1c(C(=O)Nc2c(C)n(C)n(C3CCCCC3)c2=O)noc1C1=CCC2(CCOC2)CC1` (stereo not shown) [Example 4, N-(2-Cyclohexyl-1,5-dimethyl-3-oxo-2,3-dihydro-1H-pyrazol-4-yl)-4-methyl-5-(2-oxaspiro[4.5]dec-7-en-8-yl)isoxazole-3-carboxamide]: the IC50 is 100 nM.
Then `Cc1c(C(=O)Nc2c(C)n(C)n(C3CCCCC3)c2=O)noc1C1=CCC(OC(C)C)CC1` (stereo not shown) [Example 5, N-(2-Cyclohexyl-1,5-dimethyl-3-oxo-2,3-dihydro-1H-pyrazol-4-yl)-5-(4-isopropoxycyclohex-1-en-1-yl)-4-methylisoxazole-3-carboxamide], with 310 nM; and `Cc1c(C(=O)Nc2c(C)n(C)n(C3CCCCC3)c2=O)noc1C1CCC(C)(C)CC1` [Example 6, N-(2-Cyclohexyl-1,5-dimethyl-3-oxo-2,3-dihydro-1H-pyrazol-4-yl)-5-(4,4-dimethylcyclohexyl)-4-methylisoxazole-3-carboxamide], with 5.7 nM.
`Cc1c(C(=O)Nc2c(C)n(C)n(C3CCCCC3)c2=O)noc1C1CCC(C)(C)C1` (stereo not shown) [Example 6.1, N-(2-Cyclohexyl-1,5-dimethyl-3-oxo-2,3-dihydro-1H-pyrazol-4-yl)-5-(3,3-dimethylcyclopentyl)-4-methylisoxazole-3-carboxamide]: half-maximal inhibition (IC50) was put at 23 nM.
Compound `Cc1c(C(=O)Nc2c(C)n(C)n(C3CCCCC3)c2=O)noc1CCC(C)(C)C` [Example 7, N-(2-Cyclohexyl-1,5-dimethyl-3-oxo-2,3-dihydro-1H-pyrazol-4-yl)-5-(3,3-dimethylbutyl)-4-methylisoxazole-3-carboxamide] registered an IC50 of 19 nM.
As for `Cc1c(C(=O)Nc2c(C)n(C)n(C3CCCCC3)c2=O)noc1/C=C\C(C)(C)C` [Example 8, (Z)—N-(2-Cyclohexyl-1,5-dimethyl-3-oxo-2,3-dihydro-1H-pyrazol-4-yl)-5-(3,3-dimethylbut-1-en-1-yl)-4-methylisoxazole-3-carboxamide], the half-inhibitory concentration (IC50) amounted to 46 nM.
Then `Cc1c(C(=O)Nc2c(C)n(C)n(C3CCCCC3)c2=O)noc1/C=C/C(C)(C)C` [Example 9, (E)-N-(2-Cyclohexyl-1,5-dimethyl-3-oxo-2,3-dihydro-1H-pyrazol-4-yl)-5-(3,3-dimethylbut-1-en-1-yl)-4-methylisoxazole-3-carboxamide], with 58 nM; and `Cc1c(C(=O)Nc2c(C)n(C)n(C3CCCCC3)c2=O)noc1C1CCCCC1` [Example 10, 5-Cyclohexyl-N-(2-cyclohexyl-1,5-dimethyl-3-oxo-2,3-dihydro-1H-pyrazol-4-yl)-4-methylisoxazole-3-carboxamide], with 50 nM; and `Cc1c(C(=O)Nc2c(C)n(C)n(C3CCCCC3)c2=O)noc1C1CCC2(CC1)OCCO2` [Example 11, N-(2-Cyclohexyl-1,5-dimethyl-3-oxo-2,3-dihydro-1H-pyrazol-4-yl)-4-methyl-5-(1,4-dioxaspiro[4.5]decan-8-yl)isoxazole-3-carboxamide], with 420 nM.
Compound `Cc1c(C(=O)Nc2c(C)n(C)n(C3CCCCC3)c2=O)noc1[C@@H]1OCC(C)(C)O[C@H]1C` [Example 20, N-(2-Cyclohexyl-1,5-dimethyl-3-oxo-2,3-dihydro-1H-pyrazol-4-yl)-4-methyl-5-((2R,3S)-3,5,5-trimethyl-1,4-dioxan-2-yl)isoxazole-3-carboxamide] returned a 50% inhibitory concentration (IC50) of 180 nM.
On to `Cc1c(C(=O)Nc2c(C)n(C)n(C3CCCCC3)c2=O)noc1C1CC(Br)C(C)CO1` (stereo not shown) [Example 21.1, 5-(4-Bromo-5-methyltetrahydro-2H-pyran-2-yl)-N-(2-cyclohexyl-1,5-dimethyl-3-oxo-2,3-dihydro-1H-pyrazol-4-yl)-4-methylisoxazole-3-carboxamide], for which the IC50 was 630 nM.
In turn, `CC1=CCC(c2onc(C(=O)Nc3c(C)n(C)n(C4CCCCC4)c3=O)c2C)OC1` (stereo not shown) [Example 21.2, N-(2-cyclohexyl-1,5-dimethyl-3-oxo-2,3-dihydro-1H-pyrazol-4-yl)-4-methyl-5-(5-methyl-3,6-dihydro-2H-pyran-2-yl)isoxazole-3-carboxamide] gave a 50% inhibitory concentration (IC50) of 490 nM.
The compound `Cc1c(C(=O)Nc2c(C)n(C)n(C3CCCCC3)c2=O)noc1C1OCC(C)(C)CO1` [Example 26, N-(2-Cyclohexyl-1,5-dimethyl-3-oxo-2,3-dihydro-1H-pyrazol-4-yl)-5-(5,5-dimethyl-1,3-dioxan-2-yl)-4-methylisoxazole-3-carboxamide] gave an IC50 of 580 nM.

As a reminder, the IC50 is the concentration needed to halve the response being measured. Lower therefore signals greater potency in that assay.
